Columns and labels:
A549 = test: Cytotoxicity against human A549 cells assessed as inhibition of cell growth measured after 48 hrs by Hoechst 33258 staining based fluorescence assay; type: functional; conditions: A549, 48 h
[1] = Cytotoxicity against human WS1 cells assessed as inhibition of cell growth measured after 48 hrs by Hoechst 33258 staining based fluorescence assay; type: toxicity
DLD-1 = test: Cytotoxicity against human DLD-1 cells assessed as inhibition of cell growth measured after 48 hrs by Hoechst 33258 staining based fluorescence assay; type: functional; conditions: DLD-1, 48 h

## C=C(C)[C@@H]1CC[C@]2(CO[C@@H]3O[C@@H](C)[C@H](O)[C@@H](O)[C@H]3O)CC[C@]3(C)[C@H](CC[C@@H]4[C@@]5(C)CC[C@H](O[C@@H]6O[C@@H](C)[C@H](O)[C@@H](O)[C@H]6O)C(C)(C)[C@@H]5CC[C@]43C)[C@@H]12
A549
  IC50: 1.07 µM
[1]
  IC50 at 48 h: 1.42 µM

## C[C@H]1[C@H](C)CC[C@]2(CO[C@H]3OC[C@H](O)[C@H](O)[C@H]3O)CC[C@]3(C)C(=CC[C@@H]4[C@@]5(C)CC[C@H](O[C@@H]6OC[C@H](O)[C@H](O)[C@H]6O)C(C)(C)[C@@H]5CC[C@]43C)[C@H]12
A549
  IC50: 8.9 µM
DLD-1
  IC50: 31 µM
[1]
  IC50 at 48 h: 37 µM

## C[C@H]1[C@H](C)CC[C@]2(C(=O)O)CC[C@]3(C)C(=CC[C@@H]4[C@@]5(C)CC[C@H](O[C@@H]6OC[C@H](O)[C@@H](O)[C@H]6O)C(C)(C)[C@@H]5CC[C@]43C)[C@H]12
A549
  IC50: 39 µM
DLD-1
  IC50: 29 µM
[1]
  IC50 at 48 h: 20 µM

## C[C@H]1[C@H](C)CC[C@]2(C(=O)O)CC[C@]3(C)C(=CC[C@@H]4[C@@]5(C)CC[C@H](O[C@@H]6O[C@H](C)[C@H](O)[C@H](O)[C@H]6O)C(C)(C)[C@@H]5CC[C@]43C)[C@H]12
A549
  IC50: 7 µM
DLD-1
  IC50: 15 µM
[1]
  IC50 at 48 h: 13.1 µM

## C[C@H]1[C@H](C)CC[C@]2(CO[C@@H]3O[C@H](C)[C@H](O)[C@H](O)[C@H]3O)CC[C@]3(C)C(=CC[C@@H]4[C@@]5(C)CC[C@H](O[C@@H]6O[C@H](C)[C@H](O)[C@H](O)[C@H]6O)C(C)(C)[C@@H]5CC[C@]43C)[C@H]12
A549
  IC50: 8.9 µM
DLD-1
  IC50: 12 µM
[1]
  IC50 at 48 h: 16 µM

## C[C@H]1[C@H](C)CC[C@]2(C(=O)O)CC[C@]3(C)C(=CC[C@@H]4[C@@]5(C)CC[C@H](O[C@H]6O[C@H](C)[C@@H](O)[C@H](O)[C@@H]6O)C(C)(C)[C@@H]5CC[C@]43C)[C@H]12
A549
  IC50: 65 µM
DLD-1
  IC50: 61 µM
[1]
  IC50 at 48 h: 77 µM

## C[C@H]1[C@H](C)CC[C@]2(CO[C@H]3O[C@@H](C)[C@@H](O)[C@@H](O)[C@@H]3O)CC[C@]3(C)C(=CC[C@@H]4[C@@]5(C)CC[C@H](O[C@H]6O[C@@H](C)[C@@H](O)[C@@H](O)[C@@H]6O)C(C)(C)[C@@H]5CC[C@]43C)[C@H]12
A549
  IC50: 104 µM
DLD-1
  IC50: 48 µM
[1]
  IC50 at 48 h: 62 µM

## C[C@H]1[C@H](C)CC[C@]2(C(=O)O)CC[C@]3(C)C(=CC[C@@H]4[C@@]5(C)CC[C@H](O[C@H]6O[C@@H](C)[C@@H](O)[C@@H](O)[C@@H]6O)C(C)(C)[C@@H]5CC[C@]43C)[C@H]12
A549
  IC50: 3.7 µM
DLD-1
  IC50: 15 µM
[1]
  IC50 at 48 h: 7.2 µM

## C[C@H]1[C@H](C)CC[C@]2(C(=O)O)CC[C@]3(C)C(=CC[C@@H]4[C@@]5(C)CC[C@H](O[C@H]6OC[C@@H](O)[C@@H](O)[C@@H]6O)C(C)(C)[C@@H]5CC[C@]43C)[C@H]12
A549
  IC50: 9 µM
DLD-1
  IC50: 7.9 µM
[1]
  IC50 at 48 h: 10 µM

## C[C@H]1[C@H](C)CC[C@]2(C(=O)O)CC[C@]3(C)C(=CC[C@@H]4[C@@]5(C)CC[C@H](O[C@@H]6OC[C@@H](O)[C@H](O)[C@H]6O)C(C)(C)[C@@H]5CC[C@]43C)[C@H]12
A549
  IC50: 7.4 µM
DLD-1
  IC50: 7 µM
[1]
  IC50 at 48 h: 9 µM

## C[C@H]1[C@H](C)CC[C@]2(CO[C@@H]3O[C@@H](C)[C@H](O)[C@@H](O)[C@H]3O)CC[C@]3(C)C(=CC[C@@H]4[C@@]5(C)CC[C@H](O[C@@H]6O[C@@H](C)[C@H](O)[C@@H](O)[C@H]6O)C(C)(C)[C@@H]5CC[C@]43C)[C@H]12
A549
  IC50: 4.5 µM
DLD-1
  IC50: 11 µM
[1]
  IC50 at 48 h: 14 µM

## C[C@H]1[C@H](C)CC[C@]2(CO[C@H]3O[C@H](C)[C@@H](O)[C@H](O)[C@@H]3O)CC[C@]3(C)C(=CC[C@@H]4[C@@]5(C)CC[C@H](O[C@H]6O[C@H](C)[C@@H](O)[C@H](O)[C@@H]6O)C(C)(C)[C@@H]5CC[C@]43C)[C@H]12
A549
  IC50: 104 µM
DLD-1
  IC50: 109 µM
[1]
  IC50 at 48 h: > 200 µM

## C[C@H]1[C@H](C)CC[C@]2(C(=O)O)CC[C@]3(C)C(=CC[C@@H]4[C@@]5(C)CC[C@H](O[C@H]6OC[C@H](O)[C@@H](O)[C@@H]6O)C(C)(C)[C@@H]5CC[C@]43C)[C@H]12
A549
  IC50: 35 µM
DLD-1
  IC50: 36 µM
[1]
  IC50 at 48 h: 30 µM

## C[C@H]1[C@H](C)CC[C@]2(C(=O)O)CC[C@]3(C)C(=CC[C@@H]4[C@@]5(C)CC[C@H](O[C@@H]6O[C@@H](C)[C@H](O)[C@@H](O)[C@H]6O)C(C)(C)[C@@H]5CC[C@]43C)[C@H]12
A549
  IC50: 14 µM
DLD-1
  IC50: 11 µM
[1]
  IC50 at 48 h: 8.5 µM

## C[C@H]1[C@H](C)CC[C@]2(C(=O)O)CC[C@]3(C)C(=CC[C@@H]4[C@@]5(C)CC[C@H](O[C@@H]6OC[C@H](O)[C@H](O)[C@H]6O)C(C)(C)[C@@H]5CC[C@]43C)[C@H]12
A549
  IC50: 3.5 µM
DLD-1
  IC50: 3.8 µM
[1]
  IC50 at 48 h: 5.9 µM

## C[C@H]1[C@H](C)CC[C@]2(CO[C@@H]3OC[C@@H](O)[C@@H](O)[C@@H]3O)CC[C@]3(C)C(=CC[C@@H]4[C@@]5(C)CC[C@H](O[C@H]6OC[C@@H](O)[C@@H](O)[C@@H]6O)C(C)(C)[C@@H]5CC[C@]43C)[C@H]12
A549
  IC50: 10 µM
DLD-1
  IC50: 16 µM
[1]
  IC50 at 48 h: 20 µM

## C[C@H]1[C@H](C)CC[C@]2(C(=O)O)CC[C@]3(C)C(=CC[C@@H]4[C@@]5(C)CC[C@H](O[C@H]6OC[C@@H](O)[C@H](O)[C@@H]6O)C(C)(C)[C@@H]5CC[C@]43C)[C@H]12
A549
  IC50: 9 µM
DLD-1
  IC50: 6.4 µM
[1]
  IC50 at 48 h: 4.6 µM

## C[C@H]1[C@H](C)CC[C@]2(CO[C@H]3OC[C@@H](O)[C@H](O)[C@H]3O)CC[C@]3(C)C(=CC[C@@H]4[C@@]5(C)CC[C@H](O[C@@H]6OC[C@@H](O)[C@H](O)[C@H]6O)C(C)(C)[C@@H]5CC[C@]43C)[C@H]12
A549
  IC50: 15 µM
DLD-1
  IC50: 14.9 µM
[1]
  IC50 at 48 h: 20 µM

## C[C@H]1[C@H](C)CC[C@]2(CO[C@H]3OC[C@H](O)[C@@H](O)[C@H]3O)CC[C@]3(C)C(=CC[C@@H]4[C@@]5(C)CC[C@H](O[C@@H]6OC[C@H](O)[C@@H](O)[C@H]6O)C(C)(C)[C@@H]5CC[C@]43C)[C@H]12
A549
  IC50: 15 µM
DLD-1
  IC50: 57 µM
[1]
  IC50 at 48 h: 60 µM

## C[C@H]1[C@H](C)CC[C@]2(CO[C@@H]3OC[C@H](O)[C@@H](O)[C@@H]3O)CC[C@]3(C)C(=CC[C@@H]4[C@@]5(C)CC[C@H](O[C@H]6OC[C@H](O)[C@@H](O)[C@@H]6O)C(C)(C)[C@@H]5CC[C@]43C)[C@H]12
A549
  IC50: 9.8 µM
DLD-1
  IC50: > 200 µM
[1]
  IC50 at 48 h: > 200 µM

## C[C@H]1[C@H](C)CC[C@]2(CO[C@@H]3OC[C@@H](O)[C@H](O)[C@@H]3O)CC[C@]3(C)C(=CC[C@@H]4[C@@]5(C)CC[C@H](O[C@H]6OC[C@@H](O)[C@H](O)[C@@H]6O)C(C)(C)[C@@H]5CC[C@]43C)[C@H]12
A549
  IC50: 34 µM
DLD-1
  IC50: 38 µM
[1]
  IC50 at 48 h: 10 µM

## COc1cc([C@@H]2c3cc4c(cc3[C@@H](O[C@@H]3O[C@@H]5CO[C@@H](C)O[C@H]5[C@H](O)[C@H]3O)[C@H]3COC(=O)[C@H]23)OCO4)cc(OC)c1O [ETOPOSIDE]
A549
  IC50: 1.9 µM
DLD-1
  IC50: 5.1 µM
[1]
  IC50 at 48 h: > 50 µM

## C[C@H]1[C@H](C)CC[C@]2(C(=O)O)CC[C@]3(C)C(=CC[C@@H]4[C@@]5(C)CC[C@H](O)C(C)(C)[C@@H]5CC[C@]43C)[C@H]12 [URSOLIC ACID]
A549
  IC50: 16 µM
DLD-1
  IC50: 16 µM
[1]
  IC50 at 48 h: 13.1 µM

## C[C@H]1[C@H](C)CC[C@]2(CO)CC[C@]3(C)C(=CC[C@@H]4[C@@]5(C)CC[C@H](O)C(C)(C)[C@@H]5CC[C@]43C)[C@H]12 [UVAOL]
A549
  IC50: > 200 µM
DLD-1
  IC50: > 200 µM
[1]
  IC50 at 48 h: > 200 µM

Source: ChEMBL document CHEMBL5550145, “Synthesis and cytotoxicity evaluation of d- and l-sugar-containing mono- and bidesmosidic ursane-type saponins” (Bioorg Med Chem, 2024)
